In US6706754B2, “Reversed amidines and methods of using for treating, preventing, or inhibiting leishmaniasis” (The United States of America as represented by the …, priority 2000, dated 2004):
≈ marks a conversion by molar mass, not a printed value. Entries after “also recorded” stand apart in the source; their conditions may differ. Counter-ions that a name gives are not always drawn.

Key:
L. donovani L82 = assay: In vivo assay, murine visceral model of leishmaniasis; design: species or system Leishmania donovani; conditions: BALB/c mice; for % inhibition ± S.E.M.: Table 4
[1] = test system: L. mexicana infected macrophages; assay: Infected macrophage assay, L. mexicana; format: cell-based; conditions: for Macrophage IC50 L. mexicana: J774.G8 mouse macrophages, 72 hours, 33° C., number of infected macrophages inhibited by 50%
Description: The susceptibilities of L. mexicania infected macrophages to candidate compounds were determined by the following assay.
(§1) A one week old, confluent culture of J774.G8 mouse macrophages was washed three times with Hank's Balanced Salt Solution (HBSS) without calcium and magnesium (Sigma, St. Louis, Mo.). The J774.G8 mouse macrophages are a continuous cell line that have been cited in the literature as supporting continuous and intracellular growth of various Leishmania sp. and they have been used for drug assays against intracellular parasites, Trypanosoma cruzi and Leishmania sp. See Alcina, A., et al. (1988) Antimicrobial Agents & Chemotherapy. 32(9):1412-5; Mendez, S., et al. (1996) International Journal for Parasitology 26(6):619-22; Hodgkinson, V. H., et al. (1996) Experimental Parasitology 83(1):94-105; and Chang, K. P. (1980) Science 209(4462): 1240-42, which are herein incorporated by reference.
(§2) The macrophages were then incubated at 37° C. in a humidified 5% CO2 incubator for 15 minutes with a Trypsin-EDTA (0.05% Trypsin, 0.53 mM EDTA 4Na) solution (GIBCO BRL, Grand Island, N.Y.). The macrophages were then detached with a cell scraper and suspended by vigorous pipetting. The macrophages were then mixed with a late log phase culture of L. mexicana promastigotes to yield a solution comprising about 5×10^5 macrophages per ml and about 25×10^5 promastigotes per ml in DMEM (pH 7.4) supplemented with 10% heat inactivated fetal calf serum comprising penicillin (50 units/ml) and streptomycin (50 μg/ml).
(§3) The macrophage-parasite mixture was then pipetted into 96-well flat-bottom plates (Costar, Cambridge, Mass.) at 200 μl per well. Infection and attachment of the macrophages was allowed to occur over a period of about 48 hours at 33° C. in a humidified 5% CO2 incubator. The wells were washed three times with HBSS to remove extracellular parasites. Each well was then treated with serial dilutions of a given candidate compound in DMEM.
(§4) The treated plate was incubated for about 72 hours at 33° C. in a humidified 5% CO2 incubator. The macrophages in each well were detached into the DMEM used for the incubation by pipetting and scraping with the tip of a microliter pipettor. 75 μl of the cell suspension was transferred to a cytospin funnel and the cells were centrifuged onto microscope slides at 800 rpm for 5 minutes using a Cytospin centrifuge (Shandon, Pittsburgh, Pa.).
(§5) The slides were air dried and then fixed in methanol for 5 seconds. After the methanol evaporated, the slides were stained with 5% Giemsa stain (Fisher, Suwanee, Ga.) in phosphate buffer comprising 3.1 mM potassium phosphate dibasic and 8.3 mM sodium phosphate monobasic for 45 minutes. After thorough washing with flowing tap water, the slides were air dried and then viewed by oil immersion microscopy to determine percentage of infected cells. A cell was considered to be infected if it comprised one or more amastigote with a visible parasite nucleus and kinetoplast. Counting parasites and counting infected cells provided similar results when determining IC50 values.
(§6) The IC50 values (the concentration of the compound that inhibited the number of infected macrophages by 50%) were determined with the software program TableCurve (SPSS Science, Chicago, Ill.) using the following dose-response equation: y=a+b/(1+(x/c)^d), where x=the drug concentration, y=absorbance at 490 nm, a=upper asymptote, b=slope, c=IC50 and d=lower asymptote. FIG. 3 provides the graphical data obtained for compound 1DWB667 as an example.

[2] = test system: L. donovani axenic amastigote-like parasites; assay: Axenic amastigote assay (CellTiter 96 tetrazolium dye growth assay); format: cell-based; conditions: 72 hours, 37° C., pH 5.5, concentration that inhibited parasite growth by 50%
Description: The growth susceptibilities of L. donovani axenic amastigote-like parasites to the candidate compounds were measured in a three day assay using the tetrazolium dye-based CellTiter 96 Aqueous Non-Radioactive Cell Proliferation Assay Kit (Promega, Madison, Wis.) according to Werbovetz, K., et al. (1999) Mol. Biochem. Parasitol. 98:53-65, which is herein incorporated by reference. Pentamidine, at a starting concentration of 100 μM, and serial dilutions thereof were used as controls. Specifically, L. donovani axenic amastigotes, as described by Joshi, M. et al. (1993) Mol. Biochem. Parasitol. 58:345-354, which is herein incorporated by reference, were seeded at 10^6 cells/ml in 96-well flat-bottomed plates (Costar, Cambridge, Mass.) and maintained as axenic amastigote-like forms by serial passage at 37° C. in a humid atmosphere comprising 5% CO2 using a slightly modified potassium-based version of the medium described by Joshi, M. et al. (1993) in the presence or absence of a given candidate compound. The medium comprised 15 mM KCl, […] KH2PO4, 10 mM K2HPO4, 0.5 mM MgSO4, and 24 mM NaHCO3 to give a final potassium concentration of […]. The medium was supplemented with 20% fetal bovine serum and was brought to pH 5.5. The final volume in each well was 60 μl. The plates were incubated at 37° C. for 72 hours, then 12 μl of the aqueous CellTiter solution from the kit (Promega, Madison, Wis.) was added to each well according to the instructions of the manufacturer. The plates were returned to the incubator for about 2 to about 3 hours. Then the absorbance of each well was measured at 490 nm using a SpectraMax Plus microplate reader (Molecular Devices, Sunnyvale, Calif.).
The results for each candidate compound may be found in the FIG. 1. The IC50 values (the concentration of the agent that inhibited parasite growth by 50%) for each candidate compound were determined for axenic amastigotes with the aid of the program SoftMax Pro (Molecular Devices, Sunnyvale, Calif.) using the following dose response equation: y=((a−d)/1+(x/c)^b)+d, wherein x=drug concentration; y=absorbance at 490 nm; a=upper asymptote; b=slope; c=IC50; and d=lower asymptote. FIG. 2 is the graphical data obtained for compound 1DWB667 as an example.

J774.G8 macrophages = assay: Macrophage toxicity assay (sulforhodamine B); format: cell-based, mouse; conditions: Mus musculus, 72 hours, 37° C., macrophage growth inhibited by 50%
Description: The toxicity of the candidate compounds on J774.G8 macrophages was measured using a sulforhodamine B (Molecular Probes, Eugene, Oreg.) based dye assay.
Specifically, a confluent culture of macrophages in a T75 culture flask was harvested by replacing the growth medium (DMEM supplemented with 10% heat inactivated fetal calf serum, 50 units/ml penicillin, and 50 μg/ml streptomycin) with 25 ml of fresh medium and scraping the cells from the bottom of the culture flask. Cell clumps were broken up by gentle pipetting and the cell suspension was transferred to a 50 ml conical centrifuge tube. The cells were then pelleted by centrifugation at 1,000 rpm at 4° C. for 5 minutes. The supernatant was then removed and the cells were resuspended in 15 ml DMEM.
After counting an aliquot of the cell suspension, the macrophages were then diluted to about 1×10^5 cells/ml in DMEM and 180 μl was added to each well of a 96 well tissue culture plate Then 20 μl serial dilutions of a given candidate compound was added. The plate was then placed in a 37° C. humidified 5% CO2 incubator and incubated for 72 hours. Then 50 μl of 50% TCA was added to each well to fix the proteins. The plate was then incubated for at least 1 hour at 4° C.
The liquid contents of the wells were discarded and the wells were washed five times with 200 μl of distilled water. After the final wash the plate was allowed to air dry for 20 minutes. 100 μl of the sulforhodamine B dye (0.4% dye in 1% acetic acid) was added. The plate was then incubated at room temperature for 20 minutes. After discarding the dye solution, the wells were washed five times with 200 μl of 1% acetic acid and then allowed to air dry for 20 minutes. At this time, 50 μl of 10 mM TRIS base was added. After a few minutes of incubation, the absorbance of each well at 490 nm was measured in a SpectraMax Pro microplate reader (Molecular Devices, Sunnyvale, Calif.).
The IC50 values for each candidate compound (the concentration of the agent that inhibited macrophage growth by 50%) were determined for the macrophages with the aid of the program SoftMax Pro (Molecular Devices, Sunnyvale, Calif.) using the following dose response equation: y=((a−d)/1+(x/c)^b)+d, where x=drug concentration; y=absorbance at 490 nm; a=upper asymptote; b=slope; c=IC50; and d=lower asymptote. FIG. 5 provides the graphical data for compound 1DWB667 as an example.

[3] = test system: L. donovani infected macrophages; assay: Infected macrophage assay, L. donovani; format: cell-based; conditions: J774.G8 mouse macrophages, 72 hours, 37° C.; number of infected macrophages inhibited by 50%
Source text: as §1, §2, §3, §4, §5, §6
The susceptibility of L. donovani infected macrophages to the compounds of the present invention were preformed by a modified protocol for L. mexicana infected macrophages above, wherein all incubations of the parasite infected macrophages were done at 37° C. rather than 33° C. FIG. 4 provides the graphical data for compound 1DWB667 as an example.

For `N=C(N)Nc1ccc(-c2ccc(-c3ccc(NC(=N)N)cc3)s2)cc1` [DB686, 2,5-Bis(4-guanidinophenyl)thiophene], the “% inhibition ± S.E.M.” value (L. donovani L82; 10 mg/kg p.o. × 5) was 34.91 ± 8.04%.
In the case of `N=C(Nc1ccc(-c2ccc(-c3ccc(NC(=N)c4ccccc4)cc3)o2)cc1)c1ccccc1` (as salt: hydrochloride) [DB613, 2,5-Bis[4-(benzimidoylamino)phenyl]furan], the melting point is reported as 312 to 314.5 °C.
In the case of `c1cc(-c2ccc(-c3ccc(N=NC4CCCCC4)cc3)o2)ccc1N=NC1CCCCC1` [DB656, 2,5-Bis[4-(cyclohexylimino)aminophenyl]furan], the melting point is reported as 242 to 243 °C (dec.).
In the case of `N=C(N)c1ccc(OCCCCCOc2ccc(C(=N)N)cc2)cc1` [Pentamidine, reference compound], the IC50 ([1]; Leishmania mexicana, Macrophage, in Mus musculus, 72 h, read-out: Macrophage IC50 L. mexicana) is reported as greater than 12.5 µg/mL, the “reduction of parasite burden in L. mexicana infected macrophages (in words)” value ([1]; in vitro, cutaneous strain) is reported as “ineffective in the macrophage model; also recorded: did not reduce the parasite burden” and the IC50 ([2]; Leishmania donovani) is reported as 1.22 µg/mL (≈ 3.58 µM). For the same molecule, the IC50 (J774.G8 macrophages) was 9.96 µg/mL (≈ 29.3 µM), the “% Inhib. ± SEM” value (L. donovani L82; Table 3, 5 mg/kg i.v. × 5 (doses reduced by half, see footnotes a, c)) was 30.5 ± 5.0% and the “% inhibition ± S.E.M.” value (L. donovani L82; 4 mg/kg i.v. × 5) was 16.96 ± 3.3%. For the same molecule, the “% Inhib. ± SEM” value (L. donovani L82; Table 5, 4 mg/kg i.v. × 5) was 30.6 ± 5.2%.
For “2,5-Bis[2,6-dimethyl-4-(2-pyridylimino)aminophenyl]furan [DB 714]”, the “Macrophage IC50 L. donovani” value [3] was 0.246 µg/mL, the “Macrophage IC50 L. mexicana” value [1] was 0.359 µg/mL and the “Axenic Amastigote IC50 L. donovani” value [2] was 0.290 µg/mL.
In the case of “2,5-Bis[2-methyl-4-(2-quinolylimino)aminophenyl]furan [DB716]”, the “Axenic Amastigote IC50 L. donovani” value [2] is reported as “about 10 μg/ml”.
For `C[C@@H]1[C@H](O)[C@@H](C)/C=C/C=C/C=C/C=C/C=C/C=C/C=C/[C@H](O[C@@H]2O[C@H](C)[C@@H](O)[C@H](N)[C@@H]2O)C[C@@H]2O[C@](O)(C[C@@H](O)C[C@@H](O)[C@H](O)CC[C@@H](O)C[C@@H](O)CC(=O)O[C@H]1C)C[C@H](O)[C@H]2C(=O)O` [Amphotericin B, reference compound], the “Macrophage IC50 L. donovani” value [3] was 0.024 µg/mL, the “Macrophage IC50 L. mexicana” value [1] was 0.032 µg/mL and the “Axenic Amastigote IC50 L. donovani” value [2] was 0.342 µg/mL.
